# From US7655454B1, “Bacteriological culture medium for Campylobacteriaceae species” (priority 2005, dated 2010)
# Where two headings read alike, the source gives them in different places.
# How the values were obtained:
# Assay type in all cases: cell-based
# [1] = system: Campylobacter jejuni PPMQ2b; conditions: P<0.05
# [2] = system: Campylobacter coli ATCC 33559; conditions: P<0.05
# [3] = system: Campylobacter jejuni subsp. jejuni ATCC 33560
# [4] = system: Campylobacter jejuni PPMQ3b; conditions: P<0.05
# [5] = approximately 30, 40, or 50 mM acid
# [6] = approximately 20, 30, 40, or 50 mM acid, P<0.05
# [7] = approximately 20, 30, 40, and 50 mM acid
# [8] = any of the concentrations tested
SMILES,"absorbance compared with cultures in non-supplemented media [2, 5]","absorbance compared with cultures in non-supplemented media [3, 6]",absorbance compared with cultures grown in non-supplemented media ([4]; approximately 20 mM acid),acid concentration required to produce cultures with higher absorbance than in non-supplemented media [1],"absorbance compared with cultures in non-supplemented media [2, 7]","absorbance compared with cultures grown in non-supplemented media [1, 8]",other results
"CC(O)C(=O)O (racemic) [Lactic, DL-lactic acid]",significantly greater,significantly higher,significantly greater,,,,"absorbance compared with cultures grown in non-supplemented media ([1]; approximately 20, 30, 40, or 50 mM acid): significantly greater"
"O=C(O)CC(O)C(=O)O (racemic) [Malic, DL-malic acid]",,significantly higher,,approximately 40 mM,significantly higher,,acid concentration required to produce cultures with significantly higher absorbances than in non-supplemented media [4]: approximately 20 mM
"O=C(O)CC(O)(CC(=O)O)C(=O)O [Citric, citric acid]",,,small but significantly higher,,,not significantly different,"absorbance compared with isolates grown in non-supplemented media ([2]; approximately 50 mM acid): not significantly different; growth compared with non-supplemented media ([2]; approximately 30 or 40 mM acid): significantly more growth; growth compared with non-supplemented media [3]: significantly more growth; absorbance compared with isolates grown in non-supplemented media ([3]; approximately 50 mM acid, P<0.05): not significantly different"
"O=C(O)/C=C/C(=O)O [Fumaric, fumaric acid]",,significantly higher,significantly higher,approximately 30 mM,significantly higher,,
"O=C(O)CCC(=O)O [Succinic, succinic acid]",significantly higher,,,,,none of the concentrations of succinic acid produced significantly higher absorbances,"absorbance compared with cultures in non-supplemented media ([3]; approximately 30, 40, or 50 mM acid, P<0.05): significantly higher; absorbance compared with cultures grown in non-supplemented media ([4]; approximately 40 and 50 mM acid): significantly higher"
